ChEMBL document CHEMBL1201862, “PubChem BioAssay data set” (2004)
Calls of active or inactive are those of the source.

Key:
[1] = target: NACHT, LRR and PYD domains-containing protein 3 (Homo sapiens, UniProt Q96P20); assay: NALP3 inhibitors in yeast, dose response, luminescent (AID 488799); type: functional
[2] = toxicity toward cultured mammalian cells – cell-based, plate reader, cherry-pick samples, cytotoxicity control, dose response (AID 504397); type: functional
[3] = target: T1, Ubiquitin-conjugating enzyme E2 N (Homo sapiens, UniProt P61088); type: functional;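 note: Dose-response confirmation in a TR-FRET assay detecting UBC13-driven polyubiquitin chain formation, inhibition measured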
T1 sequence (P61088 whole entry): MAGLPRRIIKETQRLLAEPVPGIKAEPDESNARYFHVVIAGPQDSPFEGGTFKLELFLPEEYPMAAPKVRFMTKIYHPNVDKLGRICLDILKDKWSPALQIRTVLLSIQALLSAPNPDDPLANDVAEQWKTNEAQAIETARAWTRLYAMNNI

[4] = target: Neurotensin receptor type 1 (Homo sapiens, UniProt P30989); type: functional;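 note: Image-based confirmatory dose-response assay measuring agonist activity at NTR1; NTR1-expressing U2OS osteosarcoma cells imaged for beta-arrestin GFP spot formation; agonist potency where compounds increase beta-arrestin recruitment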
[5] = Luminescence Cell-Based Dose Retest to Confirm Inhibitors of Cancer Stem Cells. [Related pubchem assays (depositor defined):AID2717, AID2721]; type: functional; settings: Homo sapiens
[6] = fluconazole-exposed Candida albicans growth modulators – fluorescence, retest, confirmation (AID 2467); type: functional, cell-based
[7] = microbe, parasite or virus in culture; type: functional; settings: Mycobacterium tuberculosis
[8] = Trypanosoma cruzi growth suppression in host cells – NIH3T3 host cells, beta-gal luminescence, confirmation (AID 2044); type: functional, cell-based;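 note: intracellular parasites grown in NIH/3T3 mouse fibroblasts as host cells; luminescent beta-galactosidase reporter signal from transgenic T. cruzi replicating inside host cells; inhibitors lower the luminescence signal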
[9] = test system: INS1; assay: INS-1E survival protection against cytokine death – cell-based, luminescence, retest, dose response (AID 449756); type: functional; settings: Rattus norvegicus;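 note: cell death triggered by IL-1 beta plus TNF-alpha plus IFN-gamma mixture; protective hits raise ATP signal compared with cytokine alone wells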
[10] = NIH3T3 cell viability loss – ATP luminescence, mouse fibroblasts, counter-screen, dose response (AID 2010); type: functional, cell-based;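 note: cells exposed to compound for about 90 hours before reading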
[11] = NIH-3T3 fibroblast cytotoxicity, dose response, cytotoxicity control, cell-based, fluorescence, Alamar Blue, secondary assay (AID 2327); type: functional;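 note: NIH-3T3 mouse fibroblasts cultured with fluconazole at 8 µg/mL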
[12] = test system: Vero; assay: cells; type: functional; settings: Chlorocebus sabaeus
[13] = Vero E6 cell cytotoxicity, dose response, cytotoxicity control for non-replicating M. tuberculosis project, secondary assay (AID 492998); type: functional, VeroE6; settings: Vero C1008
[14] = THP-1 cell cytotoxicity, dose response, cytotoxicity control for non-replicating M. tuberculosis project (AID 489025); type: functional
[15] = test system: Vero; assay: cells; type: functional, cell-based; settings: Chlorocebus sabaeus
[16] = target: T2, Short transient receptor potential channel 4 (Mus musculus, UniProt Q9QUQ5); assay: calcium entry via TRPC4 opening agents – cell-based, HEK293 TRPC4/mu-opioid, Fluo-4 calcium, dose response (AID 434937); type: functional
T2 sequence (Q9QUQ5 whole entry): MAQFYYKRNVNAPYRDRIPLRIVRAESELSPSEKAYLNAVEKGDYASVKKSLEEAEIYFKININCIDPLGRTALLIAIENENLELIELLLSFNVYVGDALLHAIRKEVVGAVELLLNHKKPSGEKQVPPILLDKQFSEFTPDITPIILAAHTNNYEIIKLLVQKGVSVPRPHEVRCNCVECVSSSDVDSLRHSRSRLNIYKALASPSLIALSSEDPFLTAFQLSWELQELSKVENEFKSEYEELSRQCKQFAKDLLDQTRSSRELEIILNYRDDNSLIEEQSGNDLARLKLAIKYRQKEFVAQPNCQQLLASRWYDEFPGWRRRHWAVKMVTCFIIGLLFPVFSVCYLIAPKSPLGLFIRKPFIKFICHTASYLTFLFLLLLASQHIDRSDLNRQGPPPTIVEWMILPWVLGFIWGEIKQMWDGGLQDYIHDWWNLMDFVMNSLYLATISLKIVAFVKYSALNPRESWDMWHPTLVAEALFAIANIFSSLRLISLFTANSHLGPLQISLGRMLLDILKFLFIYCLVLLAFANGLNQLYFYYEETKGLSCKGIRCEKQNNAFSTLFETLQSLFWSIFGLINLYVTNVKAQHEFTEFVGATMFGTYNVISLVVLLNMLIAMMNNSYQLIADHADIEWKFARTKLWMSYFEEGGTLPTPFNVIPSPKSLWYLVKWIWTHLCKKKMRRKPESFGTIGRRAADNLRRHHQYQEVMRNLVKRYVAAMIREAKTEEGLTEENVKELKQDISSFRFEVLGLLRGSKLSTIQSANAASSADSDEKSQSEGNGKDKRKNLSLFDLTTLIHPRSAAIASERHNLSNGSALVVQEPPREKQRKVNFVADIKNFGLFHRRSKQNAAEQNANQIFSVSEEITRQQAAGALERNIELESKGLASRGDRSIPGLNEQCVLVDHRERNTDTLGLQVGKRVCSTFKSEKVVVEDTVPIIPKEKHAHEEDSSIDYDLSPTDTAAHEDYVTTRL

[17] = cells; type: functional
[18] = target: T3, Cannabinoid receptor 1 (Homo sapiens, UniProt P21554); assay: SAR analysis of antagonists of the Cannabinoid Receptor 1 using an Image-Based Assay - Set 4. [Related pubchem assays (depositor defined):AID2013, AID2026]; type: functional
[19] = target: T4, G-protein coupled receptor 35 (Homo sapiens, UniProt Q9HC97); assay: SAR analysis of Agonists of the GPR35 Receptor using an Image-Based Assay - Set 4. [Related pubchem assays (depositor defined):AID2013, AID2026]; type: functional
[20] = target: T5, Cannabinoid receptor 2 (Homo sapiens, UniProt P34972); assay: SAR analysis of antagonists of the Cannabinoid Receptor 2 using an Image-Based Assay - Set 3. [Related pubchem assays (depositor defined):AID2013, AID2026]; type: functional
[21] = target: G-protein coupled receptor 55 (Homo sapiens, UniProt Q9Y2T6); assay: SAR Analysis of Selective Antagonists of GPR55 using an Image-Based Assay - Set 4. [Related pubchem assays (depositor defined):AID2013, AID2026]; type: functional;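 note: antagonism of response to 5 µM lysophosphatidylinositol agonist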
[22] = target: T4, G-protein coupled receptor 35; assay: SAR analysis of Antagonists of the GPR35 Receptor using an Image-Based Assay - Set 6. [Related pubchem assays (depositor defined):AID2013, AID2026]; type: functional
[23] = target: T5, Cannabinoid receptor 2; assay: SAR analysis of agonists of the Cannabinoid Receptor 2 using an Image-Based Assay - Set 3. [Related pubchem assays (depositor defined):AID2013, AID2026]; type: functional
[24] = target: T3, Cannabinoid receptor 1; assay: SAR analysis of agonists of the Cannabinoid Receptor 1 using an Image-Based Assay - Set 4. [Related pubchem assays (depositor defined):AID2013, AID2026]; type: functional
[25] = target: T6, Alkaline phosphatase, tissue-nonspecific isozyme (Homo sapiens, UniProt P05186); assay: potency against alkaline phosphatase TNAP – biochemical, luminescent, dose response, SAR follow-up (AID 1056)
T6 sequence (P05186 whole entry): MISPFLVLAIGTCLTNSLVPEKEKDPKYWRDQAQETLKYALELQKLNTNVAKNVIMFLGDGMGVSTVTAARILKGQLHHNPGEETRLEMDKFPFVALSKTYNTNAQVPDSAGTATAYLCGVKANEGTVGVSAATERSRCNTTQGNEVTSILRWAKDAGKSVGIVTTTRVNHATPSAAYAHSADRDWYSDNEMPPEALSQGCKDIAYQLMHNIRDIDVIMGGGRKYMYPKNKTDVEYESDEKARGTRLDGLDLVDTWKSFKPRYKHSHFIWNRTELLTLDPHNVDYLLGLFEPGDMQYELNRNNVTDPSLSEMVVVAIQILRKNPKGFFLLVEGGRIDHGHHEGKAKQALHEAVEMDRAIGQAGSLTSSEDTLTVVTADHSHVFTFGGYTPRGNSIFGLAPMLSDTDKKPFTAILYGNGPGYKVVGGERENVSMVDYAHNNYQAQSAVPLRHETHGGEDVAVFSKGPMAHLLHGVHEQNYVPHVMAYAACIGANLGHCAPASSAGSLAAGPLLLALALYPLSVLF

[26] = target: Alkaline phosphatase, placental type (Homo sapiens, UniProt P05187); assay: human placental alkaline phosphatase inhibition – biochemical, luminescence, confirmation (AID 1512); type: functional
[27] = target: CAAX prenyl protease 2 (Saccharomyces cerevisiae S288c, UniProt Q03530); type: biochemical
Sequence of CAAX prenyl protease 2 (Q03530 whole entry): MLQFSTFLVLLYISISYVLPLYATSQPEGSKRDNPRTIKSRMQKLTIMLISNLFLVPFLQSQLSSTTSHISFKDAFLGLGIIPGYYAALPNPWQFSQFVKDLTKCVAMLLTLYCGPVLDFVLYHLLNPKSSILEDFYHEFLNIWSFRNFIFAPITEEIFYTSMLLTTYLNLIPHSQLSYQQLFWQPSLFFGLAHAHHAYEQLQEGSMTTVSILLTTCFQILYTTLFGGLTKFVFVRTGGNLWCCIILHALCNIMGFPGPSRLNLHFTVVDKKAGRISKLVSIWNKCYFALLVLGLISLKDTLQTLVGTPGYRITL

T3 sequence (P21554 whole entry): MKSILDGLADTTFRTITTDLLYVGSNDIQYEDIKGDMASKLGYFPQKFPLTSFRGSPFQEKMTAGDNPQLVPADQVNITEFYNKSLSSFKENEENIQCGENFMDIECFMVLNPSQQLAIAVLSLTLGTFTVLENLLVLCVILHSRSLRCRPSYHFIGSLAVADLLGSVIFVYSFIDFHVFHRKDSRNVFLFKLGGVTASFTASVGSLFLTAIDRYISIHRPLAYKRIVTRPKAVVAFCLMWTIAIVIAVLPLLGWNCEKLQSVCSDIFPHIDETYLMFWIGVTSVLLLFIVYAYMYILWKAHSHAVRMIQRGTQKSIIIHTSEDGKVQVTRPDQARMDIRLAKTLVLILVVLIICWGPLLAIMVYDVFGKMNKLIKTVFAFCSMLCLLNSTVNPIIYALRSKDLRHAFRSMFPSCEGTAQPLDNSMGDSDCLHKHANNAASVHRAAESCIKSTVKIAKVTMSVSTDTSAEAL
T5 sequence (P34972 whole entry): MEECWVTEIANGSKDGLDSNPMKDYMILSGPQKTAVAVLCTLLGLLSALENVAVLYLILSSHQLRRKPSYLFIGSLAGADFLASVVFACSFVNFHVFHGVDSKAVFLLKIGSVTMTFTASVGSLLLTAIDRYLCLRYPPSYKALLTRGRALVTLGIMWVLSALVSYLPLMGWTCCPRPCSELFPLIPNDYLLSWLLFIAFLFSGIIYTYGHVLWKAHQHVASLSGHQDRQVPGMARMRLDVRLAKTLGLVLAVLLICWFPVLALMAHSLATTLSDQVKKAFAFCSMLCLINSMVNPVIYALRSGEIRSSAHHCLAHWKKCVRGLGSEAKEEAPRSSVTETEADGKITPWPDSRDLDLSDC
T4 sequence (Q9HC97 whole entry): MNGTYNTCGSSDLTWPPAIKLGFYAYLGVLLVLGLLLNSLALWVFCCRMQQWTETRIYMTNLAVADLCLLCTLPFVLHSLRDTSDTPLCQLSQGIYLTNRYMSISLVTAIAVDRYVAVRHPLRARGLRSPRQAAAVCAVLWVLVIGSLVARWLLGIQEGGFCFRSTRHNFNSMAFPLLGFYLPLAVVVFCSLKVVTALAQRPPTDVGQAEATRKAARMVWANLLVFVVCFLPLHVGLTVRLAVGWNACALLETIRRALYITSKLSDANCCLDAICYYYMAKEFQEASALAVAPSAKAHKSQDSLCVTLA
Sequence of NACHT, LRR and PYD domains-containing protein 3 (Q96P20 whole entry, the tested form may be a part): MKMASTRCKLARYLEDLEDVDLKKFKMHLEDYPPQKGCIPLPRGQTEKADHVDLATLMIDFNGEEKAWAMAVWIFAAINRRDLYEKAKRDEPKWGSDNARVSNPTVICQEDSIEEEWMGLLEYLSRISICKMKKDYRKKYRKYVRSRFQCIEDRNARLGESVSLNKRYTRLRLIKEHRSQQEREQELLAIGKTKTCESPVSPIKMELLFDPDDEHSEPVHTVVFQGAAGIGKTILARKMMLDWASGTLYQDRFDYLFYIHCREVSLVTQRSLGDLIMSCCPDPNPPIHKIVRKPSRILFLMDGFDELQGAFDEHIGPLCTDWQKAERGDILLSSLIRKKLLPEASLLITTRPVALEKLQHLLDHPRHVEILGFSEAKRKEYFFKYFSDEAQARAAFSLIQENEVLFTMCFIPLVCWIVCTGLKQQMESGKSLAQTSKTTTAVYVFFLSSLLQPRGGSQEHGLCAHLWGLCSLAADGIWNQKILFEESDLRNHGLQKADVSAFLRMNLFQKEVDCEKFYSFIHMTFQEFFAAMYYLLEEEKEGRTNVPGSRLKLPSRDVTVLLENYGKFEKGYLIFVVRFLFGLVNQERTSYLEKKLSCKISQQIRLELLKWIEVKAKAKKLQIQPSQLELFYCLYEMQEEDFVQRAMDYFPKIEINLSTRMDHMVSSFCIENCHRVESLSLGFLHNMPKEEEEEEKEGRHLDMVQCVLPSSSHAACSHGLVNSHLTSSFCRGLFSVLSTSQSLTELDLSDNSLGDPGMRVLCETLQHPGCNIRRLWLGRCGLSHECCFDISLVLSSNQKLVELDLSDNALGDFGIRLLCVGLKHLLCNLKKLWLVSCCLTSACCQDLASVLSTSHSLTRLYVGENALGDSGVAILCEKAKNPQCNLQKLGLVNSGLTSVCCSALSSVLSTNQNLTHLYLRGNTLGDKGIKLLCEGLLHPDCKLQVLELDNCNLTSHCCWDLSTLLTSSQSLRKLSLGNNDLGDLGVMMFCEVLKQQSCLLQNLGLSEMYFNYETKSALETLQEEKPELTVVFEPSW
Sequence of G-protein coupled receptor 55 (Q9Y2T6 whole entry): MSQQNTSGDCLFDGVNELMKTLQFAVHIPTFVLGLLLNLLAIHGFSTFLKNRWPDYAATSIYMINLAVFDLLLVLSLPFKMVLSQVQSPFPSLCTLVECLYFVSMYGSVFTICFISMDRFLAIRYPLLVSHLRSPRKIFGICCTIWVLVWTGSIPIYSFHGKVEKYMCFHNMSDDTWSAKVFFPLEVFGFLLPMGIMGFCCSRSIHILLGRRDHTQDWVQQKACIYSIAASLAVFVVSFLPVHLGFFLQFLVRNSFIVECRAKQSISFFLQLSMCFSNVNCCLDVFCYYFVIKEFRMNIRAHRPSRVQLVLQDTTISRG
Sequence of Alkaline phosphatase, placental type (P05187 whole entry): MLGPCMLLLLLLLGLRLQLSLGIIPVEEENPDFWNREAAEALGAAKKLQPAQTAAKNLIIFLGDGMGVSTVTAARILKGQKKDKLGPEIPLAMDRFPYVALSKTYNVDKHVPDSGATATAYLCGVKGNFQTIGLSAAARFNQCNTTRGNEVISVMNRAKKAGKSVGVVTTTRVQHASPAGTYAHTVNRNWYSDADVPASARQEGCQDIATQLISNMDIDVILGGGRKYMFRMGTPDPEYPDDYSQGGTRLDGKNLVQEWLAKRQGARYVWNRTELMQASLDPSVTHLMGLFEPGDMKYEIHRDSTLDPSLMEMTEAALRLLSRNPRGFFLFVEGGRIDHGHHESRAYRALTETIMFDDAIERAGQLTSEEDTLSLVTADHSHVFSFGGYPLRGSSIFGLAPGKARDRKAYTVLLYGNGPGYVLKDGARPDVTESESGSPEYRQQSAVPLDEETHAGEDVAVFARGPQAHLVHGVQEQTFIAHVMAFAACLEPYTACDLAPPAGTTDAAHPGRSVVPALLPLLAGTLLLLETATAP
Sequence of Neurotensin receptor type 1 (P30989 whole entry): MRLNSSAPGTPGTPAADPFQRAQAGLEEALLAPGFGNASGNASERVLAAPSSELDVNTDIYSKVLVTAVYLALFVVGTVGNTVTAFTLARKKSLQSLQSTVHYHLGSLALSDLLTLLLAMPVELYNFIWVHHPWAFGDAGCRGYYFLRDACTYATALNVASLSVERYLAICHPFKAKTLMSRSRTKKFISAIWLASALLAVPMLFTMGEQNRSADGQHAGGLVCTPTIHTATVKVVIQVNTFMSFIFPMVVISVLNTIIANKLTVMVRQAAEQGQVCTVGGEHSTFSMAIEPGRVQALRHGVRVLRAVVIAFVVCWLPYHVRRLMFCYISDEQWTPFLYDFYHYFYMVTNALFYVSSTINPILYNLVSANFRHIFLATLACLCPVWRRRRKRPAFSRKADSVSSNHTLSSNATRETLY

In the case of `CCOC(=O)c1ccc2c(c1)nc(COc1ccc(OC)cc1)n2CC`, the IC50 [1] is reported as > 100 µM (inactive).

For `Cc1cc(C)cc(Nc2nc(-c3ccc(S(=O)(=O)N4CCCC4)cc3)cs2)c1`, the AC50 [2] was > 350 µM (inactive).

For `Cc1cccc(OCc2n(C)c3ccccc3[n+]2CC(=O)OC2CC(C)CCC2C(C)C)c1` (configuration not stated), the IC50 [3] was > 20 µM (inactive), the EC50 [4] was 8.85 µM (active) and the AC50 [5] was 3.49 µM (active). For the same compound, the EC50 [6] was 0.736 µM (active), the CC50 [7] was 18.8 µM (active) and the EC50 [8] was 0.565 µM (active). The AC50 [9] was 3.61 µM (active), the EC50 [10] was > 60 µM (not active) and the EC50 [11] was 11.2 µM (inconclusive).

In the case of `CCCOc1ccc(C(=O)NNC(=S)NC(=O)c2cccs2)cc1`, the IC50 [1] is reported as 8.96 µM (active), the CC50 [12] is reported as 15.6 µM (active) and the CC50 [13] is reported as 6.29 µM (active). The EC50 [6] was 0.391 µM (active), the CC50 [14] was 5.22 µM (active) and the IC50 [15] was > 25 µM (active). For the same compound, the EC50 [16] was 3.76 µM (active), the EC50 [11] was 18.5 µM (active) and the IC50 [17] was 0.5 µM (active).

In the case of `O=C(N1CCC(n2nc(-c3ccccc3)oc2=O)CC1)C1(c2ccccc2)CC1`, the IC50 [18] is reported as 8.64 µM (active), the EC50 [19] is reported as > 32 µM (inactive) and the IC50 [20] is reported as > 32 µM (inactive). For the same compound, the IC50 [21] was 17.4 µM (inactive), the IC50 [22] was > 32 µM (inactive) and the EC50 [23] was > 32 µM (inactive). The EC50 [24] was > 32 µM (inactive).

For `CCN(CC)c1ccc(C(=O)CSc2nc(C)cc(C)n2)cc1`, the IC50 [25] was > 100 µM (inactive) and the IC50 [26] was > 100 µM (inactive).

For `Cc1ccc(-c2nnc(C)c3nn(-c4ccccc4)cc23)cc1`, the IC50 [18] was 4.61 µM (active), the EC50 [19] was > 32 µM (inactive) and the IC50 [20] was > 32 µM (inactive). The IC50 [21] was > 32 µM (inactive), the IC50 [22] was > 32 µM (inactive) and the EC50 [23] was > 32 µM (inactive). For the same compound, the EC50 [24] was > 32 µM (inactive).

With `O=C(O)CNc1ccccc1C(=O)O` the AC50 [27] was 11.3 µM (active).
